In US20170050966A1, “INHIBITING THE TRANSIENT RECEPTOR POTENTIAL A1 ION CHANNEL” (HYDRA BIOSCIENCES, INC., priority 2014, published 2017):

Key:
mTRPA1 = molecular target: T1, mTRPA1 (Mus musculus, UniProt Q8BLA8); assay: TRPA1 IC50, whole-cell patch clamp; assay type: cell-based; details: mTRPA1, 10 μM AITC; read-out: IC50 Inward current
T1 construct: expressed in transfected cells

CYP3A4 = CYP3A4 (Homo sapiens, UniProt P08684); assay: CYP450 inhibition at 10 μM; assay type: biochemical
rTRPA1 = molecular target: T2, rTRPA1 (Rattus norvegicus, UniProt Q6RI86); assay: TRPA1 IC50, whole-cell patch clamp; assay type: cell-based; details: rTRPA1, 10 μM AITC; read-out: IC50 Inward current
T2 construct: expressed in transfected cells

[1] = system: allergic sheep challenged with Ascaris suum; assay: Sheep model of allergic bronchoconstriction and airway hyperresponsiveness; assay type: in vivo
Protocol: Compound 2 was also tested in the sheep model of allergic bronchoconstriction and airway hyperresponsiveness according to the methods disclosed in Abraham, W. M Palm Pharmacol Ther (2008) 21:743-754. Allergic sheep challenged with Ascaris suum show a substantial, biphasic increase in pulmonary resistance (RL). The first four hours are considered the early asthmatic response (EAR); the next four hours (hours 4-8) are considered to be the late asthmatic response (LAR). To assess airway responsiveness (AHR), the cumulative carbachol dose in breath units that increased pulmonary resistance 400% over the post-buffer value (PC 400) was calculated from the dose response curve. One breath unit was defined as one breath of a 1% w/v carbachol solution. A pre-challenge PC 400 was obtained 1-3 days before the start of dosing.
Compound 2 was formulated as a micronized powder suspended in 0.5% methylcellulose at a concentration of 6 mg/ml and administered orally at a dose of 30 mg/kg once a day for 4 days, at the same approximate time each day. Sheep were given 30 mg/kg Compound 2 orally daily four days. Two hours after the final dose of Compound 2, the sheep were subjected to an allergen (Ascaris) challenge. Each sheep was restrained in a prone position and its head was immobilized prior to topical anesthesia of the nasal passages. A balloon catheter was advanced through one nostril into the lower esophagus. Each sheep was intubated with a cuffed endotracheal tube through the other nostril. Tracheal and pleural pressures were determined using the endotracheal tube and balloon catheter, respectively. The trans-pulmonary pressure, i.e., the difference between the tracheal and pleural pressures, was measured using a differential pressure transducer catheter system. RL was determined by connecting the distal end of the endotracheal tube to a pneumotachograph. Data were collected from five to ten breaths to a computer and used to calculate RL. Data from the same sheep challenged with Ascaris prior to the initiation of Compound 2 treatment were used to establish baseline values. Monitoring conditions for the control and drug trials were identical.
On the day of challenge and two hours after the final dose of Compound 2, an aerosol of Ascaris suum (82,000 protein nitrogen units/mL) was generated using a nebulizer and delivered to the sheep using a Harvard respirator. RL was determined one hour prior to challenge, immediately following Ascaris challenge, and hourly thereafter for eight hours. Challenge to 4 hours is considered the EAR while 4 to 8 hours is considered the LAR.
Sheep were also challenged with aerosolized carbachol, a cholinergic agonist that has a negative impact on AHR. […]

sprague-dawley rats = assay: Hepatotoxicity safety profile, serum biomarkers; assay type: in vivo; details: for ALP d28 / ALT d28 / AST d28 / GGT d28: day 28
Protocol: Compound 2 in the vehicle (0.5% methylcellulose [400 cps]) was administered orally by gavage once daily for a minimum of 28 consecutive days to 3 groups of sprague-dawley rats from Charles River Laboratories. Each group received one dosage level. Dosage levels were 30, 100, and 300 mg/kg/day for each group. […] The dose volume was 10 ml/kg for all groups. Hepatoxicity was measured via the serum biomarkers of alanine aminotransferease [ALT], aspartate aminotransferase [AST], alkaline phosphastase [ALP] and gamma-glutamyl transferase [GGT] which represent hepatotoxicity or bile duct injury.

beagle dogs = assay: Hepatotoxicity safety profile, serum biomarkers; assay type: in vivo; details: for ALP d-5 / ALT d-5 / AST d-5 / GGT d-5: day -5 before dosing; for ALP d5 / ALT d5 / AST d5 / GGT d5: day 5
Protocol: Compound 2 in vehicle (0.5% methylcellulose [400 cps] in deionized water) was administered orally once daily for five consecutive days by gavage once to 3 groups of non-naïve male and female beagle dogs. Each group received one dose level. […] […] The dose volume was 10 ml/kg for all groups. Hepatoxicity was measured via the serum biomarkers of alanine aminotransferease [ALT], aspartate aminotransferase [AST], alkaline phosphastase [ALP] and gamma-glutamyl transferase [GGT] which represent hepatotoxicity or bile duct injury.

[2] = Oral PK and bioavailability of micronized Compound 2 suspension; assay type: in vivo, Sprague-Dawley rats
Protocol: Additional studies were conducted with micronized Compound 2 in rat, dogs (beagles), and cynomolgus monkeys. Animals received a 10 mg/kg dose oral dose of compound formulated as a suspension in 0.5% methyl cellulose in water for injection at a target concentration of 1 mg/mL, and administered a dose volume of 10 mL/kg by oral gavage in rats or fasted dogs and via oral delivery in fasted cynomolgus monkeys. The % F for the rats in these studies was 85%, 36% for the dogs, and 19% for the monkeys. FIG. 11 depicts the pharmacokinetic profile for these species.
Several in vivo studies were performed to characterize the bioavailability of Compound 2. In Sprague-Dawley rats, a single oral dose of 10 mg/kg to 1000 mg/kg of Compound 2 were compared in a series of experiments. Compound 2 used in these studies was recrystallized from ethanol and micronized.

[3] = 30 mg/kg orally once a day for 4 days

CYP3A4, sequence (P08684 whole entry): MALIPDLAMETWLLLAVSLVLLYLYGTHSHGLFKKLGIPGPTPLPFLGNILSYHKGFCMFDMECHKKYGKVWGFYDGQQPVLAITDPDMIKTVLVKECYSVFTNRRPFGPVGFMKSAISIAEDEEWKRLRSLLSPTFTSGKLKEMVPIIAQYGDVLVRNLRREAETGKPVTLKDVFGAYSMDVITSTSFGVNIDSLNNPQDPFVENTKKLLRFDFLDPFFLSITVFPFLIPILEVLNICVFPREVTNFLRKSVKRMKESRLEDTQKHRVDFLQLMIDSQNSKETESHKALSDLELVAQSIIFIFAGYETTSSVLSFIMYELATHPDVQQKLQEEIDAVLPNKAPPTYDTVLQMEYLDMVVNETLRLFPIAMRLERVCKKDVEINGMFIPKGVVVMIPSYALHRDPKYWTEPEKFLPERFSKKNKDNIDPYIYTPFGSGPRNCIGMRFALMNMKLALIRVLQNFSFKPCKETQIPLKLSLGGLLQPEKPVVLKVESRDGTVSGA
T1 sequence (Q8BLA8 whole entry): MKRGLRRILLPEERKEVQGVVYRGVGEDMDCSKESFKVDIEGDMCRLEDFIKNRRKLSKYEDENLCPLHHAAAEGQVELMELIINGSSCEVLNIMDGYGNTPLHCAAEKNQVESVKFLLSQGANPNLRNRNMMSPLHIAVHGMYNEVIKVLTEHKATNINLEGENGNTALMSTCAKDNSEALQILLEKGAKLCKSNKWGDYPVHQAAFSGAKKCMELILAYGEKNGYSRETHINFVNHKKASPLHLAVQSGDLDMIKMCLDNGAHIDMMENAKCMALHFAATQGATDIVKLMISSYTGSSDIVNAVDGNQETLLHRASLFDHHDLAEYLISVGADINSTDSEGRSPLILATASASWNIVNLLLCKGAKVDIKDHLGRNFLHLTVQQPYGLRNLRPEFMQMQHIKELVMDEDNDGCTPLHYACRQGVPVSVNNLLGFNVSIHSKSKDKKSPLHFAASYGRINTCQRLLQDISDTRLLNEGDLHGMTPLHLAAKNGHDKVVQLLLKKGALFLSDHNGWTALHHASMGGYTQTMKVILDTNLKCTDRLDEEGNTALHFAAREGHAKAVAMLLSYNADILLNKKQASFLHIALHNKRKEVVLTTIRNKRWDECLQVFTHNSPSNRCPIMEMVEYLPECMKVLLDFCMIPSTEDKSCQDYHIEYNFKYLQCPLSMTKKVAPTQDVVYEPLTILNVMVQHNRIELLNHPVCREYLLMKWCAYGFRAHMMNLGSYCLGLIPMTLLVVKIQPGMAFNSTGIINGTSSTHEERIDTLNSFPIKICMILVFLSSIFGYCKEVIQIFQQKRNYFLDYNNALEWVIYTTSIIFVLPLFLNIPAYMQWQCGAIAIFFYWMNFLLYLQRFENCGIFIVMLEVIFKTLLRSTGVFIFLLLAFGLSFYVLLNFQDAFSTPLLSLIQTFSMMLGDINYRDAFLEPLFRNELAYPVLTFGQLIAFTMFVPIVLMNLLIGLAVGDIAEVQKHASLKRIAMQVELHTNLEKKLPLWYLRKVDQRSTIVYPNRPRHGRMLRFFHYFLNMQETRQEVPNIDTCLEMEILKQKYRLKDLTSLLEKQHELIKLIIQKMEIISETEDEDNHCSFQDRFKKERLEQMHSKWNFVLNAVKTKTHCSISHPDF
T2 sequence (Q6RI86 whole entry): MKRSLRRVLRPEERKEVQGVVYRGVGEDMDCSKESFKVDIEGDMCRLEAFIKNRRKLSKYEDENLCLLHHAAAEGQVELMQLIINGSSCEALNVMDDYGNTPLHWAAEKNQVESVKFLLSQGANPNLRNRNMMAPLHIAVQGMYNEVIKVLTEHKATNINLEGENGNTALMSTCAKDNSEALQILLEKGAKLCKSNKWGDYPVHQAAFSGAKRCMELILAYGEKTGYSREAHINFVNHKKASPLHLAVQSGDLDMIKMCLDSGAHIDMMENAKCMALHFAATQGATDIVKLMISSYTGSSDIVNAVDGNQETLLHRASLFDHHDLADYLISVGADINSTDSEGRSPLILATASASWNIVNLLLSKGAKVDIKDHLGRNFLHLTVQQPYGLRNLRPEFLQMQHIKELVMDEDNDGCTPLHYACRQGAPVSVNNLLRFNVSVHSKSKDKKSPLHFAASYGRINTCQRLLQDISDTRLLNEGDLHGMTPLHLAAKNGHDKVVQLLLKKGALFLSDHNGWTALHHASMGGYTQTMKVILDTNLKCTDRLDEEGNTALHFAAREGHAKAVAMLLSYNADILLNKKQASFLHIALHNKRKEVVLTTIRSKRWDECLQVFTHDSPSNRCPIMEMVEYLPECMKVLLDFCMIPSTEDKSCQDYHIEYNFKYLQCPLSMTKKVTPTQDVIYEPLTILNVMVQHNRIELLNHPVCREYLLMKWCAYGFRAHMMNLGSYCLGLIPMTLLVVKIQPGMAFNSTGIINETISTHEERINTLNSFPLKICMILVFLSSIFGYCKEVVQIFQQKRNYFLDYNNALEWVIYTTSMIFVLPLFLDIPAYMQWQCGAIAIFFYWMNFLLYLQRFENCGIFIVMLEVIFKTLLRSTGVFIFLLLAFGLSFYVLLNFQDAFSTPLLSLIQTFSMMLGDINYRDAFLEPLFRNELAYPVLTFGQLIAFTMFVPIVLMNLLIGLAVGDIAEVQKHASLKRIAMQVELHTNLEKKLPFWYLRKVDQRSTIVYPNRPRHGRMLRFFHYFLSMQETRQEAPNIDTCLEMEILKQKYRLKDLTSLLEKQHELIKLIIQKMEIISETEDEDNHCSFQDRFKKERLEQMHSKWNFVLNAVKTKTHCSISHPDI

## C[C@@H](C(=O)Nc1ccnc(-c2cnc(N3CCC[C@H]3C(F)(F)F)nc2)n1)n1cnc2c1c(=O)n(C)c(=O)n2C [Compound 2, (S)-2-(1,3-dimethyl-2,6-dioxo-2,3-dihydro-1H-purin-7(6H)-yl)-N-(2′-((S)-2-(trifluoromethyl)pyrrolidin-1-yl)-[2,5′-bipyrimidin]-4-yl)propanamide]
mTRPA1
  IC50: 0.0266 ± 0.0033 µM
CYP3A4; probe Midazolam, 3A4, substrate Midazolam
  inhibition at 10 µM: 0%
CYP3A4; probe Testosterone, 3A4, substrate Testosterone
  inhibition at 10 µM: 2.8%
rTRPA1
  IC50: 0.0229 ± 0.0046 µM
[1]; [3]
  peak early airway responses: did not affect the peak early airway responses
  protection of late airway responses: 85%
[1]; 30 mg/kg orally, carbachol challenge 24 hours after final dose
  airway hyperresponsiveness (PC400): reduced the airway hyperresponsiveness to levels similar to those observed in sheep that were not challenged with Ascaris suum
[1]; treatment trial, 30 mg/kg orally once a day for 4 days
  average LAR (increase in pulmonary resistance): 19±2.3%
sprague-dawley rats; 30 mg/kg/day oral
  ALP d28: 168.0 U/L
  ALT d28: 33.0 U/L
  AST d28: 98.0 U/L
  GGT d28: 0.0 U/L
sprague-dawley rats; 100 mg/kg/day oral
  ALP d28: 185.0 U/L
  ALT d28: 34.0 U/L
  AST d28: 100.0 U/L
  GGT d28: 0.0 U/L
sprague-dawley rats; 300 mg/kg/day oral
  ALP d28: 163.0 U/L
  ALT d28: 43.0 U/L
  AST d28: 115.0 U/L
  GGT d28: 0.0 U/L
sprague-dawley rats; sprague-dawley rats, oral once daily for 28 days
  serum biomarkers of hepatotoxicity (ALT, AST, ALP, GGT): did not elevate the serum biomarkers up to and including a dose of 300 mg/kg
Beagle dogs; 30 mg/kg group
  ALP d-5: 93.0 U/L
  ALT d-5: 19.0 U/L
  AST d-5: 20.0 U/L
  GGT d-5: 0.0 U/L
Beagle dogs; 30 mg/kg oral once daily
  ALP d5: 143.0 U/L
  ALT d5: 20.0 U/L
  AST d5: 22.0 U/L
  GGT d5: 0.0 U/L
Beagle dogs; 100 mg/kg group
  ALP d-5: 120.0 U/L
  ALT d-5: 21.0 U/L
  AST d-5: 20.0 U/L
  GGT d-5: 0.0 U/L
Beagle dogs; 100 mg/kg oral once daily
  ALP d5: 141.0 U/L
  ALT d5: 19.0 U/L
  AST d5: 21.0 U/L
  GGT d5: 0.5 U/L
Beagle dogs; 300 mg/kg group
  ALP d-5: 118.0 U/L
  ALT d-5: 28.0 U/L
  AST d-5: 22.0 U/L
  GGT d-5: 0.0 U/L
Beagle dogs; 300 mg/kg oral once daily
  ALP d5: 101.0 U/L
  ALT d5: 21.0 U/L
  AST d5: 22.0 U/L
  GGT d5: 0.0 U/L
Beagle dogs; beagle dogs, oral once daily for five days
  serum biomarkers of hepatotoxicity (ALT, AST, ALP, GGT): did not elevate the serum biomarkers up to and including a dose of 300 mg/kg
[2]; Sprague-Dawley rats, single oral dose 10 mg/kg to 1000 mg/kg
  Exposures based on AUC and Cmax versus dose: increased with doses up to 1000 mg/kg
[2]; Sprague-Dawley, rat, plasma, rats, 10 mg/kg oral, micronized suspension in 0.5% methyl cellulose
  bioavailability: 85%
